Test results reported in US9422336B2 (priority 2012, dated 2016).

Assays:
[1] = system: acute visceral pain model in mice; experiment: acute visceral pain model in mice (acetic acid writhing); conditions: n=6
[2] = system: sciatic nerve injured limb (allodynia); experiment: von Foley hair test (mechanical stimulation) after partial sciatic nerve injury; assay type: in vivo, C57BL/6 male mice; conditions: 2 mg i.p., N=6 per time point
Experimental: (§1) Surgical procedures were performed under Halothane (2-3%) anesthesia. Partial sciatic nerve injury was made by tying a tight ligature with 9-0 silk suture around ⅓ to ½ the diameter of the sciatic nerve, as had been described (Malmberg A B and Basbaum A I. Pain 1998; 76:215-222). In mice with sham operation, the sciatic nerve was exposed but not ligated. The mice were subsequently habituated to the test environment for at least 1 hour before thermal test and von Foley hair test. In thermal test, the paw withdrawal latency was determined as an indicator for pain. […], the stimulus intensity was adjusted to give a 10-second withdrawal latency in the normal mouse, while the cutoff in the absence of a response was 20 seconds. The mechanical sensitivity with von Foley hairs was assessed by the up-down paradigm (Chaplan et al, J Neurosci Methods 1994; 53:53-66). The filament for the testing paradigm was chosen to be 0.3-gm.
The same animal model in example 3 was used. The peptide 5 as shown in SEQ ID NO: 5 was tested for its anti-allodynia effects in mice receiving sciatic nerve ligation. Results from the mechanical stimulation (von Foley test) of the sham operated mice and the nerve injured mice were compared in parallel on day 5, 10 and 30 after the surgery.

[3] = system: sciatic nerve injured limb (hyperalgesia); experiment: thermal test (paw withdrawal latency) after partial sciatic nerve injury; assay type: in vivo, C57BL/6 male mice; conditions: 2 mg i.p., N=6; for temperature-induced pain, paw withdrawal latency: injured limb, day 5, 10 and 30 after surgery, vs untreated (DMSO solvent), FIG. 5
Experimental: as §1
The peptide 5 as shown in SEQ ID NO: 5 was tested for its anti-hyperalgesia effects in mice receiving sciatic nerve ligation. Results from the thermal test of the sham operated mice and the nerve injured mice were compared in parallel on day 5, 10 and 30 after the surgery.

H1N1 viruses = assay type: cell-based, influenza A virus H1N1; conditions: 0.001-10 μM; MDCK monolayer; 5,000 pfu/ml; 3 days; FIG. 7 right panel
H5N1 viruses = assay type: cell-based, influenza A virus H5N1; conditions: 0.001-10 μM; MDCK monolayer; 5,000 pfu/ml; 3 days; FIG. 7 left panel

Compound | onset of the pain induced by intra-peritoneal injection of acetic acid (onset of the 1st writhing) ([1]; 2 mg peptide i.p. 30 min before 1 ml 1% acetic acid i.p., control water alone, FIG. 3) | total writhing number in 30 minutes after acetic acid injection ([1]; 2 mg peptide i.p. 30 min before 1 ml 1% acetic acid i.p., control water alone, FIG. 4) | total writhing number in 30 minutes after acetic acid injection ([1]; 2 mg peptide i.p. 30 min before 1 ml 1% acetic acid i.p., control water alone, FIG. 4, listed as peptide 5) | p (ANOVA), von Foley hair threshold, untreated vs treated injury-ipsilateral limb ([2]; day 5, 10 or 30) | allodynia, von Foley hair threshold ([2]; injured limb, day 5, 10 and 30 after surgery, vs untreated (pure water), FIG. 6, listed as peptide 5) | p (ANOVA), paw withdrawal latency, untreated vs treated injured ipsilateral limb ([3]; day 5, 10 or 30) | temperature-induced pain, paw withdrawal latency [3] | temperature-induced pain, paw withdrawal latency ([3]; listed as peptide 5) | inhibition of replication of H1N1 viruses in vitro (H1N1 viruses) | inhibition of replication of H5N1 viruses in vitro (H5N1 viruses) | p, onset of pain, peptide 5 vs this substance ([1]; peptides 2 mg, morphine 1 mg i.p., FIG. 3) | p, total writhing number in 30 minutes, peptide 5 vs this substance ([1]; peptides 2 mg, morphine 1 mg i.p., FIG. 4)
DEAQETAVSSHEQD ((1)..(14) residues 1-14 of rabbit alpha1-antiproteinase F; listed as Oryctolagus cuniculus) [Peptide 5, fragment (residues 1-14) of rabbit α1-antiproteinase F] | significant delay in the onset of the pain | significant reduction in the total writhing number | reduced total writhing episodes | < 0.005 | significantly increase the tolerance to mechanical stimuli | < 0.005 | significantly reduced the temperature-induced pain | significantly increase the tolerance to the heat-induced pain | potent effects in inhibiting the replication | potent effects in inhibiting the replication |  | 
CN1CC[C@]23c4c5ccc(O)c4O[C@H]2[C@@H](O)C=C[C@H]3[C@H]1C5 [morphine, reference compound] |  |  |  |  |  |  |  |  |  |  | > 0.05 | > 0.05
